This note sets out measurements from ChEMBL document CHEMBL3997761 (Medchemcomm, 2016).

In series [1] the test system is Mus musculus. The series can be described thus: Antiinflammatory activity in ICR mouse assessed as inhibition of xylene-induced ear edema at 16.7 umol/kg, po pretreated for 30 mins followed by xylene administration measured after 2 hrs relative to control. Format: functional, organism-based.
In series [2] the test system is K562. In words: Induction of apoptosis in human K562 cells assessed as necrotic cells at 10 uM after 12 hrs by Annexin V-FITC/propidium iodide staining based flow cytometry (reference value: 0.6%). Format: functional. (In flow cytometry, cells or beads pass a laser one at a time.)
Series [3] is described as follows: Induction of nanoparticle formation in ultrapure water assessed as zeta potential at 1 uM under 650 nanometer laser beam irradiation.
The nature of series [4]: Drug uptake in nucleus of human SH-SY5Y cells at 40 uM by fluorescence microscopy. In kind it is ADME. To be noted: TDE = time-dependent effect.
The nature of series [5]: Induction of nanoparticle formation in ultrapure water assessed as Farady-Tyndall effect at 1 uM.
Series [6] relates to Plasma. In words: Induction of nanoparticle formation in rat plasma assessed as nanoparticle size at 0.1 uM by atomic force microscopy. Format: cell-free.
For series [7], the system named is K562. In words: Induction of apoptosis in human K562 cells assessed as live cells at 10 uM after 12 hrs by Annexin V-FITC/propidium iodide staining based flow cytometry (reference value: 91.6%). Format: functional.
The test system of series [8] is Plasma. In words: Induction of nanoparticle formation in rat plasma assessed as nanoparticle size at 1 uM by atomic force microscopy. In kind it is cell-free.
Series [9] is described as follows: Induction of nanoparticle formation in ultrapure water assessed as nanoparticle size at 1 uM under 650 nanometer laser beam irradiation.
In series [10] the test system is Mus musculus. In words: Antiinflammatory activity in xylene induced ICR mouse ear edema model assessed as decrease in serum TNFalpha level at 1 umol/kg, po pretreated for 30 mins followed by xylene administration measured after 2 hrs by ELISA. In kind it is functional, organism-based. Background: In an ELISA, binding on a coated surface is turned into a signal by an enzyme label.

Series [11] concerns K562. In words: Induction of apoptosis in human K562 cells assessed as necrotic cells at 10 uM after 24 hrs by Annexin V-FITC/propidium iodide staining based flow cytometry (reference value: 0.6%). In kind it is functional.
The species entered for series [12] is Bos taurus. In words: Binding affinity to calf thymus DNA assessed as fluorescence quenching by measuring bathochromic shift by spectrofluorometric method.
Series [13] concerns K562. The series can be described thus: Antiproliferative activity against human K562 cells after 48 hrs by MTT assay. To be noted: K562, 48 h. Format: functional, cell-based.
Series [14] can be described thus: Induction of nanoparticle formation in ultrapure water by transmission electron microscopic method.
In series [15] the test system is Mus musculus. In words: Downregulation of P-selectin expression in ip dosed ICR mouse serum implanted with mouse S180 cells by ELISA. In kind it is functional, organism-based.
Series [16] deals with Plasma. The series can be described thus: Induction of nanoparticle formation in rat plasma by atomic force microscopy. Format: cell-free.
The test system of series [17] is CCRF S-180. The series can be described thus: Potency index, ratio of compound effect to doxorubicin effect for antitumor activity against mouse S180 cells implanted in ICR mouse assessed as decrease in tumor weight. Format: functional.
Series [18] concerns K562. The series can be described thus: Induction of apoptosis in human K562 cells assessed as live cells at 10 uM after 24 hrs by Annexin V-FITC/propidium iodide staining based flow cytometry (reference value: 94.3%). In kind it is functional.
Series [19] has as its system CCRF S-180. The series can be described thus: Antitumor activity against mouse S180 cells implanted in ICR mouse assessed as decrease in tumor size at 0.01 to 1 umol/kg, ip administered daily for 10 days and measured 24 hrs post last dose. In kind it is functional, organism-based.
A short description of series [20]: Drug uptake in nucleus of human HT-29 cells at 40 uM by fluorescence microscopy. Format: ADME. To be noted: TDE = time-dependent effect.
The subject of series [21] is K562. The series can be described thus: Induction of apoptosis in human K562 cells assessed as early apoptotic cells at 10 uM after 24 hrs by Annexin V-FITC/propidium iodide staining based flow cytometry (reference value: 3.2%). In kind it is functional.
In series [22] the test system is K562. In words: Induction of apoptosis in human K562 cells at 10 uM by Annexin V-FITC/propidium iodide staining based flow cytometry. In kind it is functional, cell-based. The conditions noted are these: TDE = time-dependent effect.
The nature of series [23]: Induction of nanoparticle formation in ultrapure water assessed as nanoparticle size at 0.1 uM by transmission electron microscopic method.
Series [24] is described as follows: Induction of nanoparticle solid formation assessed as nanoparticle size at 1 uM by scanning electron microscopic method.
The species entered for series [25] is Bos taurus. The series can be described thus: Binding affinity to calf thymus DNA by CD spectrum analysis.
In series [26] the test system is Mus musculus. In words: Downregulation of TNFalpha levels in ip dose ICR mouse serum implanted with mouse S180 cells by ELISA. In kind it is functional, organism-based.
For series [27], the species on record is Bos taurus. In words: Binding affinity to calf thymus DNA by UV spectrum analysis.
In series [28] the test system is CCRF S-180. The series can be described thus: Antitumor activity against mouse S180 cells implanted in ICR mouse assessed as decrease in tumor weight administered intraperitoneally daily for 10 days and measured after 24 hrs last dose. Format: functional.
Series [29] can be described thus: Induction of nanoparticle formation in ultrapure water assessed as Farady-Tyndall effect at 1 uM under 650 nanometer laser beam irradiation.
Series [30] deals with K562. The series can be described thus: Induction of apoptosis in human K562 cells assessed as late apoptotic cells at 10 uM after 12 hrs by Annexin V-FITC/propidium iodide staining based flow cytometry (reference value: 1.7%). Format: functional.
A short description of series [31]: Induction of nanoparticle solid formation assessed as nanoparticle size at 10 uM by scanning electron microscopic method.
Series [32] is described as follows: Induction of nanoparticle solid formation assessed as nanoparticle size at 0.1 uM by scanning electron microscopic method.
The next series deals with HT-29. The series can be described thus: Antiproliferative activity against human HT-29 cells after 48 hrs by MTT assay. In kind it is functional, cell-based. To be noted: HT-29, 48 h. (Formazan colour is commonly taken as a measure of viable cells.)
The next series deals with SH-SY5Y. In words: Antiproliferative activity against human SH-SY5Y cells after 48 hrs by MTT assay. Format: functional, cell-based.
Series [33] in a line: Induction of nanoparticle solid formation by scanning electron microscopic method.
Series [34] has as its system Plasma. The series can be described thus: Induction of nanoparticle formation in rat plasma assessed as nanoparticle size at 10 uM by atomic force microscopy. In kind it is cell-free.
The next series deals with HCT-8. The series can be described thus: Antiproliferative activity against human HCT8 cells after 48 hrs by MTT assay. Format: functional, cell-based. To be noted: HCT-8, 48 h.
Another series concerns HL-60. In words: Antiproliferative activity against human HL60 cells after 48 hrs by MTT assay. In kind it is functional, cell-based. To be noted: HL-60, 48 h.
Series [35] relates to K562. In words: Induction of apoptosis in human K562 cells assessed as late apoptotic cells at 10 uM after 24 hrs by Annexin V-FITC/propidium iodide staining based flow cytometry (reference value: 1.9%). In kind it is functional.
For series [36], the system named is K562. The series can be described thus: Induction of apoptosis in human K562 cells assessed as early apoptotic cells at 10 uM after 12 hrs by Annexin V-FITC/propidium iodide staining based flow cytometry (reference value: 5.1%). Format: functional.
Series [37] has as its system Mus musculus. In words: Potency index, ratio of compound effect to aspirin effect for antiinflammatory activity in ICR mouse assessed as inhibition of xylene-induced ear edema. Format: functional.
The subject of another series is A549. In words: Antiproliferative activity against human A549 cells after 48 hrs by MTT assay. Format: functional, cell-based. The conditions noted are these: A549, 48 h.
Series [38] deals with Mus musculus. In words: Antiinflammatory activity in xylene induced ICR mouse ear edema model assessed as decrease in serum IL2 level at 1 umol/kg, po pretreated for 30 mins followed by xylene administration measured after 2 hrs by ELISA. Format: functional, organism-based.
Series [39] relates to Mus musculus. The series can be described thus: Antiinflammatory activity in ICR mouse assessed as inhibition of xylene-induced ear edema at 1 umol/kg, po pretreated for 30 mins followed by xylene administration measured after 2 hrs relative to control. Format: functional, organism-based.
The test system of another series is HeLa. The series can be described thus: Antiproliferative activity against human HeLa cells after 48 hrs by MTT assay. Format: functional, cell-based.
A short description of series [40]: Induction of nanoparticle formation in ultrapure water assessed as nanoparticle size at 10 uM by transmission electron microscopic method.
Series [41] can be described thus: Induction of nanoparticle formation in ultrapure water assessed as nanoparticle size at 1 uM by transmission electron microscopic method.
Series [42] is described as follows: Drug uptake in nucleus of human HeLa cells at 40 uM by fluorescence microscopy. In kind it is ADME, cell-based. To be noted: TDE = time-dependent effect.
The test system of series [43] is CCRF S-180. The series can be described thus: Antitumor activity against mouse S180 cells implanted in ICR mouse assessed as decrease in tumor weight at 2 umol/kg, ip administered daily for 10 days and measured 24 hrs post last dose. In kind it is functional, organism-based.

Activity calls are given as the source filed them. No cut-off for these calls is given here.

Take `CC(=O)Oc1ccccc1C(=O)O`: the inhibition entry in the series on Mus musculus [1] was “Active”.

As usually defined, the IC50 is the concentration needed to halve the response being measured. `N=C(NCCC[C@H](NC(=O)c1cc2c(cn1)[nH]c1ccccc12)C(=O)OCc1ccccc1)N[N+](=O)[O-]`: the Activity in the series with K562 [2] was 3.5%; in series [3] it was -14.2 mV; in the series with Plasma [6], 68.6 to 78.4 nm; in the series with K562 [7] it was 73%; with Plasma [8], 78.5 to 98 nm; in series [9] it was 165 nm. Also, the Activity in the series on K562 [11] is 1.4%; in the series filed under Bos taurus [12], “Dose-dependent effect”; in [14] it was “Dose-dependent effect”; with Mus musculus [15], “Dose-dependent effect”; in the series with Plasma [16], “Dose-dependent effect”; with K562 [18], 25.5%. Besides, the Activity in the series on K562 [21] was 60.7%; in the series on K562 [22], “Tde”; in series [23] it was 8 to 72.7 nm; in series [24], 33.3 to 100 nm; in the series filed under Bos taurus [25], “Dose-dependent effect”; in the series on Mus musculus [26] it was “Dose-dependent effect”. The Activity result in the series listed under Bos taurus [27] is “Dose-dependent effect”; in the series with CCRF S-180 [28] it was “Dose-dependent effect”; in the series with K562 [30], 9%; in series [31], 44.4 to 111 nm; in series [32], 28.6 to 88.9 nm; in [33], “Dose-dependent effect”. Besides, the Activity with Plasma [34] is 102 to 109 nm; with K562 [35], 12.4%; with K562 [36] it was 14.5%; in series [40] it was 43.9 to 176 nm; in [41], 10.8 to 116 nm. The Drug uptake entry in series [4], in series [20] and in [42] was “Tde” in each case. The outcome in [5] was inactive. Further, the result (with Mus musculus [10]; in the series on CCRF S-180 [19]; in series [29]; in the series on Mus musculus [38]) was Active. Further, the half-maximal inhibitory concentration (IC50) in the series with K562 [13], in the series on HT-29, in the series on SH-SY5Y, with HCT-8, in the series with HL-60 and in the series on A549 was 15.3 to 74.1 µM in each case. This compound had an IC50 with HeLa of 15.3 to 74.1 µM. Also, the Ratio is given as 2 in the series on CCRF S-180 [17] and 16.7 in the series with Mus musculus [37]. The MED in the series on CCRF S-180 [28] came to 0.01 µmol/kg. In addition, the inhibition result in the series with Mus musculus [39] was “Active”.

As for `COc1cccc2c1C(=O)c1c(O)c3c(c(O)c1C2=O)C[C@@](O)(C(=O)CO)C[C@@H]3O[C@H]1C[C@H](N)[C@H](O)[C@H](C)O1`, the result in the series on CCRF S-180 [43] was Active.
